Experimental data published in patent US20230407243A1, “GENETIC PLATFORM TO INVESTIGATE THE FUNCTIONS OF BACTERIAL DRUG EFFLUX PUMPS” (priority 2022, published 2023).

Key:
Format in all cases: cell-based, Escherichia coli
EKO-35-Pore = assay: MIC susceptibility profiling, porinated strain; conditions: for Fold changes of MICs: EKO-35-Pore compared to EKO-35-Pore (reference); for Minimum inhibitory concentration (MIC), Pore EKO-35: Table 10, with pore; for Minimum inhibitory concentration (MIC), Pore EKO-35 / Minimum inhibitory concentration, EKO-35-Pore: technical duplicate; for Minimum inhibitory concentration, EKO-35-Pore: Table 14A, porinated
How it was run: (§1)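 MIC values come from background-corrected OD600 readings (pre-incubation OD subtracted) after 18 h at 37 °C and 900 rpm in MHB II. Compounds were tested in duplicate as 2-fold dilutions. The inoculum came from 18 h LB cultures adjusted to OD600 ~1.0 and diluted 1/2000, and the pore-bearing strains were vancomycin-checked beforehand.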

EKO-35 araC::mdtBC = assay: MIC susceptibility profiling, efflux platform; conditions: for Fold change of MICs: EKO-35 araC::mdtBC compared to EKO-35; for Minimum Inhibitory Concentration, EKO-35 araC::mdtBC: Table 13B, non-porinated, technical duplicate
How it was run: (§2)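 OD600 read-out, background-corrected, after 18 h at 37 °C with shaking. Compounds were tested in duplicate as 2-fold series in MHB II, with DMSO as solvent control. Inoculum was a 1/2000 dilution of an OD600 ~1.0 PBS suspension.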

EKO-35 araC::acrEF = assay: MIC susceptibility profiling, efflux platform; conditions: for Fold change of MICs: EKO-35 araC::acrEF compared to EKO-35; for Minimum Inhibitory Concentration, EKO-35 araC::acrEF: Table 13A, non-porinated, technical duplicate
How it was run: as §2

EKO-35 araC::acrBD408A = assay: MIC susceptibility profiling, efflux platform; conditions: for Fold change of MICs: EKO-35 araC::acrBD408A compared to EKO-35; for Minimum Inhibitory Concentration, EKO-35 araC::acrBD408A: Table 13B, non-porinated, technical duplicate
How it was run: as §2

[1] = tested on: wild-type E. coli K-12 str. BW25113; assay: microbe, parasite or virus in culture; conditions: technical duplicate; for Minimum inhibitory concentration (MIC), K-12: Table 10, without pore; for Minimum Inhibitory Concentration, K-12: Table 13A, non-porinated
How it was run: as §2

E. coli ΔtolC = assay: microbe, parasite or virus in culture; conditions: technical duplicate; for Minimum inhibitory concentration (MIC), ΔtolC: Table 10, without pore; for Minimum Inhibitory Concentration, ΔtolC: Table 13A, non-porinated
How it was run: as §2

E. coli EKO-35 = assay: microbe, parasite or virus in culture; conditions: for Fold change of MICs: EKO-35 compared to EKO-35 (reference); for Minimum inhibitory concentration (MIC), EKO-35: Table 10, without pore; for Minimum inhibitory concentration (MIC), EKO-35 / Minimum Inhibitory Concentration, EKO-35: technical duplicate; for Minimum Inhibitory Concentration, EKO-35: Table 13A, non-porinated
How it was run: as §2

ΔtolC-Pore = assay: microbe, parasite or virus in culture; conditions: technical duplicate; for Minimum inhibitory concentration (MIC), Pore ΔtolC: Table 10, with pore; for Minimum inhibitory concentration, ΔtolC-Pore: Table 14A, porinated
How it was run: as §1

wild-type (WT) K-12-Pore = assay: microbe, parasite or virus in culture; conditions: technical duplicate; for Minimum inhibitory concentration (MIC), Pore K-12: Table 10, with pore; for Minimum inhibitory concentration, K-12 (WT)-Pore: Table 14A, porinated
How it was run: as §1

EKO-35 araC::mexCD Pore = assay: MIC susceptibility profiling, porinated efflux platform; conditions: for Fold changes of MICs: EKO-35 araC::mexCD Pore compared to EKO-35-Pore; for Minimum inhibitory concentration: EKO-35 araC::mexCD Pore, technical duplicate
How it was run: as §1

EKO-35 araC::emrAB Pore = assay: as above; conditions: for Fold changes of MICs: EKO-35 araC::emrAB Pore compared to EKO-35-Pore; for Minimum inhibitory concentration: EKO-35 araC::emrAB Pore, technical duplicate
How it was run: as §1

EKO-35 araC::mdtBC Pore = assay: as above; conditions: for Fold changes of MICs: EKO-35 araC::mdtBC Pore compared to EKO-35-Pore; for Minimum inhibitory concentration: EKO-35 araC::mdtBC Pore, technical duplicate
How it was run: as §1

EKO-35 araC::macAB Pore = assay: as above; conditions: for Fold changes of MICs: EKO-35 araC::macAB Pore compared to EKO-35-Pore; for Minimum inhibitory concentration: EKO-35 araC::macAB Pore, technical duplicate
How it was run: as §1

[2] = tested on: EKO-35 araC::acrBD408A Pore; assay: as above; conditions: for Fold changes of MICs: EKO-35 araC::acrBD408A Pore compared to EKO-35-Pore; for Minimum inhibitory concentration: EKO-35 araC::acrBD408A Pore, technical duplicate
How it was run: as §1

EKO-35 araC::mdtEF Pore = assay: as above; conditions: for Fold changes of MICs: EKO-35 araC::mdtEF Pore compared to EKO-35-Pore; for Minimum inhibitory concentration, EKO-35 araC::mdtEF Pore: Table 14A, porinated, technical duplicate
How it was run: as §1

EKO-35 araC::acrEF Pore = assay: as above; conditions: for Minimum inhibitory concentration, EKO-35 araC::acrEF Pore: Table 14A, porinated, technical duplicate
How it was run: as §1

EKO-35 araC::emrKY Pore = assay: as above; conditions: for Fold changes of MICs: EKO-35 araC::emrKY Pore compared to EKO-35-Pore; for Minimum inhibitory concentration: EKO-35 araC::emrKY Pore, technical duplicate
How it was run: as §1

EKO-35 araC::acrD Pore = assay: as above; conditions: for Fold changes of MICs: EKO-35 araC::acrD Pore compared to EKO-35-Pore; for Minimum inhibitory concentration, EKO-35 araC::acrD Pore: Table 14A, porinated, technical duplicate
How it was run: as §1

EKO-35 araC::acrB Pore = assay: as above; conditions: for Fold changes of MICs: EKO-35 araC::acr-B Pore compared to EKO-35-Pore; for Minimum inhibitory concentration, EKO-35 araC::acrB Pore: Table 14A, porinated, technical duplicate
How it was run: as §1

In the case of `C[n+]1c2cc(N)ccc2cc2ccc(N)cc21.[Cl-]` [acriflavine], the “Fold changes of MICs” value (EKO-35-Pore) is reported as 1 fold, the “Minimum inhibitory concentration (MIC), Pore EKO-35” value (EKO-35-Pore) is reported as 0.098 µg/mL and the “Minimum inhibitory concentration, EKO-35-Pore” value (EKO-35-Pore) is reported as 0.098 µg/mL. The “Fold change of MICs” value (EKO-35 araC::mdtBC) was 1 fold, the “Minimum Inhibitory Concentration, EKO-35 araC::mdtBC” value (EKO-35 araC::mdtBC) was 0.098 µg/mL and the “Fold change of MICs” value (EKO-35 araC::acrEF) was 8 fold. The “Minimum Inhibitory Concentration, EKO-35 araC::acrEF” value (EKO-35 araC::acrEF) was 0.781 µg/mL, the “Fold change of MICs” value (EKO-35 araC::acrBD408A) was 1 fold and the “Minimum Inhibitory Concentration, EKO-35 araC::acrBD408A” value (EKO-35 araC::acrBD408A) was 0.098 µg/mL. For the same compound, the “Minimum inhibitory concentration (MIC), K-12” value [1] was 50 µg/mL, the “Minimum Inhibitory Concentration, K-12” value [1] was 50 µg/mL and the “Minimum inhibitory concentration (MIC), ΔtolC” value (E. coli ΔtolC) was 3.125 µg/mL. The “Minimum Inhibitory Concentration, ΔtolC” value (E. coli ΔtolC) was 3.125 µg/mL, the “susceptibility of EKO-35 compared with the ΔtolC mutant” value (E. coli EKO-35) was “more susceptible” and the “Fold change of MICs” value (E. coli EKO-35) was 1 fold. For the same compound, the “Minimum inhibitory concentration (MIC), EKO-35” value (E. coli EKO-35) was 0.098 µg/mL, the “Minimum Inhibitory Concentration, EKO-35” value (E. coli EKO-35) was 0.098 µg/mL and the “Minimum inhibitory concentration (MIC), Pore ΔtolC” value (ΔtolC-Pore) was 3.125 µg/mL. The “Minimum inhibitory concentration, ΔtolC-Pore” value (ΔtolC-Pore) was 3.125 µg/mL, the “Minimum inhibitory concentration (MIC), Pore K-12” value (wild-type (WT) K-12-Pore) was 50 µg/mL and the “Minimum inhibitory concentration, K-12 (WT)-Pore” value (wild-type (WT) K-12-Pore) was 50 µg/mL. The “Fold changes of MICs” value (EKO-35 araC::mexCD Pore) was 4 fold, the Minimum inhibitory concentration (EKO-35 araC::mexCD Pore) was 0.391 µg/mL and the “Fold changes of MICs” value (EKO-35 araC::emrAB Pore) was 2 fold. The Minimum inhibitory concentration (EKO-35 araC::emrAB Pore) was 0.195 µg/mL, the “Fold changes of MICs” value (EKO-35 araC::mdtBC Pore) was 1 fold and the Minimum inhibitory concentration (EKO-35 araC::mdtBC Pore) was 0.098 µg/mL. For the same compound, the “Fold changes of MICs” value (EKO-35 araC::macAB Pore) was 2 fold, the Minimum inhibitory concentration (EKO-35 araC::macAB Pore) was 0.195 µg/mL and the “Fold changes of MICs” value [2] was 1 fold. For the same compound, the Minimum inhibitory concentration [2] was 0.098 µg/mL, the “Fold changes of MICs” value (EKO-35 araC::mdtEF Pore) was 2 fold and the “Minimum inhibitory concentration, EKO-35 araC::mdtEF Pore” value (EKO-35 araC::mdtEF Pore) was 0.195 µg/mL. For the same compound, the “Fold changes of MICs” value (EKO-35 araC::acrEF Pore; EKO-35 araC::acrEF Pore compared to EKO-35-Pore) was 8 fold, the “Minimum inhibitory concentration, EKO-35 araC::acrEF Pore” value (EKO-35 araC::acrEF Pore) was 0.781 µg/mL and the “Fold changes of MICs” value (EKO-35 araC::emrKY Pore) was 1 fold. For the same compound, the Minimum inhibitory concentration (EKO-35 araC::emrKY Pore) was 0.098 µg/mL, the “Fold changes of MICs” value (EKO-35 araC::acrD Pore) was 2 fold and the “Minimum inhibitory concentration, EKO-35 araC::acrD Pore” value (EKO-35 araC::acrD Pore) was 0.195 µg/mL. The “Fold changes of MICs” value (EKO-35 araC::acrB Pore) was 16 fold and the “Minimum inhibitory concentration, EKO-35 araC::acrB Pore” value (EKO-35 araC::acrB Pore) was 1.563 µg/mL.

`O=C(NC(=O)N1CCc2c([nH]c3ccccc23)C1C(F)(F)F)c1ccccc1` (stereo not shown) [compound 13] was tested, and the “Fold changes of MICs” value (EKO-35-Pore) was 1 fold, the “Minimum inhibitory concentration (MIC), Pore EKO-35” value (EKO-35-Pore) was 5 µg/mL and the “Minimum inhibitory concentration, EKO-35-Pore” value (EKO-35-Pore) was 5 µg/mL. For the same compound, the “Fold change of MICs” value (EKO-35 araC::mdtBC) was 1 fold, the “Minimum Inhibitory Concentration, EKO-35 araC::mdtBC” value (EKO-35 araC::mdtBC) was 40 µg/mL and the “Fold change of MICs” value (EKO-35 araC::acrEF) was 8 fold. The “Minimum Inhibitory Concentration, EKO-35 araC::acrEF” value (EKO-35 araC::acrEF) was 320 µg/mL, the “Fold change of MICs” value (EKO-35 araC::acrBD408A) was 1 fold and the “Minimum Inhibitory Concentration, EKO-35 araC::acrBD408A” value (EKO-35 araC::acrBD408A) was 40 µg/mL. For the same compound, the “Minimum inhibitory concentration (MIC), K-12” value [1] was 320 µg/mL, the “Minimum Inhibitory Concentration, K-12” value [1] was 320 µg/mL and the “Minimum inhibitory concentration (MIC), ΔtolC” value (E. coli ΔtolC) was 1.25 µg/mL. The “Minimum Inhibitory Concentration, ΔtolC” value (E. coli ΔtolC) was 1.25 µg/mL, the “Fold change of MICs” value (E. coli EKO-35) was 1 fold and the “Minimum inhibitory concentration (MIC), EKO-35” value (E. coli EKO-35) was 40 µg/mL. For the same compound, the “Minimum Inhibitory Concentration, EKO-35” value (E. coli EKO-35) was 40 µg/mL, the “susceptibility of EKO-35 to the compound” value (E. coli EKO-35; synthetic efflux substrates of FIG. 12) was “susceptible” and the “Minimum inhibitory concentration (MIC), Pore ΔtolC” value (ΔtolC-Pore) was 1.25 µg/mL. The “Minimum inhibitory concentration, ΔtolC-Pore” value (ΔtolC-Pore) was 1.25 µg/mL, the “Minimum inhibitory concentration (MIC), Pore K-12” value (wild-type (WT) K-12-Pore) was 320 µg/mL and the “Minimum inhibitory concentration, K-12 (WT)-Pore” value (wild-type (WT) K-12-Pore) was 320 µg/mL. The “Fold changes of MICs” value (EKO-35 araC::mexCD Pore) was 1 fold, the Minimum inhibitory concentration (EKO-35 araC::mexCD Pore) was 5 µg/mL and the “efflux pump-mediated resistance vs EKO-35-Pore” value (EKO-35 araC::mexCD Pore; MexCD, OM compromised) was “no longer associated MexCD with resistance”. The “Fold changes of MICs” value (EKO-35 araC::emrAB Pore) was 2 fold, the Minimum inhibitory concentration (EKO-35 araC::emrAB Pore) was 10 µg/mL and the “Fold changes of MICs” value (EKO-35 araC::mdtBC Pore) was 1 fold. The Minimum inhibitory concentration (EKO-35 araC::mdtBC Pore) was 5 µg/mL, the “Fold changes of MICs” value (EKO-35 araC::macAB Pore) was 1 fold and the Minimum inhibitory concentration (EKO-35 araC::macAB Pore) was 5 µg/mL. The “Fold changes of MICs” value [2] was 1 fold, the Minimum inhibitory concentration [2] was 5 µg/mL and the “Fold changes of MICs” value (EKO-35 araC::mdtEF Pore) was 8 fold. For the same compound, the “Minimum inhibitory concentration, EKO-35 araC::mdtEF Pore” value (EKO-35 araC::mdtEF Pore) was 40 µg/mL, the “Minimum inhibitory concentration, EKO-35 araC::acrEF Pore” value (EKO-35 araC::acrEF Pore) was 20 µg/mL and the “Fold changes of MICs” value (EKO-35 araC::emrKY Pore) was 1 fold. The Minimum inhibitory concentration (EKO-35 araC::emrKY Pore) was 2.5 µg/mL, the “Fold changes of MICs” value (EKO-35 araC::acrD Pore) was 2 fold and the “Minimum inhibitory concentration, EKO-35 araC::acrD Pore” value (EKO-35 araC::acrD Pore) was 10 µg/mL. The “Fold changes of MICs” value (EKO-35 araC::acrB Pore) was 64 fold and the “Minimum inhibitory concentration, EKO-35 araC::acrB Pore” value (EKO-35 araC::acrB Pore) was 320 µg/mL.
